Earlier results on eight compounds are cited in US20060286183A1, “Diet supplement for causing rapid weight loss, controlling appetite, managing stress, supporting relaxation, combating fatigue and supporting mental well-being” (priority 2005, published 2006).

The conditions of series [1]: animals.
The subject of series [2] is 5-alpha-reductase.
For series [3] the following is noted: humans.
For series [4] the following is noted: in vivo.
For series [5] the following is noted: compared with vitamin C and E.
The target of series [6] is glutamate dehydrogenase (Homo sapiens, UniProt P00367).
glutamate dehydrogenase, sequence (P00367 54-558): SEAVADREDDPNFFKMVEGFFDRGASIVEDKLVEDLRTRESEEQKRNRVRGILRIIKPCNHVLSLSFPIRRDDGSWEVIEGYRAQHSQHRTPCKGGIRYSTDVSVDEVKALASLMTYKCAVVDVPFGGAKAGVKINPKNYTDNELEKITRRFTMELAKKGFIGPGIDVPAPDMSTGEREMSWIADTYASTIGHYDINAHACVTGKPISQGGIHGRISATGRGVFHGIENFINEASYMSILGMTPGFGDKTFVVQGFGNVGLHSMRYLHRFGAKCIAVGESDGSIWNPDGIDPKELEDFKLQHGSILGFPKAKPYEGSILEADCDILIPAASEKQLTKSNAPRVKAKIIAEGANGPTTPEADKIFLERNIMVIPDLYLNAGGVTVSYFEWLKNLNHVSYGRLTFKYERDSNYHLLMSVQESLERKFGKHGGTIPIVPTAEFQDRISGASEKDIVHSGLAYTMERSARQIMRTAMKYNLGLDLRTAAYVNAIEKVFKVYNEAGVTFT
The conditions of series [7]: lean and obese rats.
Series [8] deals with T1, catechol-O-methyl-transferase (COMT) (Homo sapiens, UniProt P21964).
T1 sequence (P21964 1-271): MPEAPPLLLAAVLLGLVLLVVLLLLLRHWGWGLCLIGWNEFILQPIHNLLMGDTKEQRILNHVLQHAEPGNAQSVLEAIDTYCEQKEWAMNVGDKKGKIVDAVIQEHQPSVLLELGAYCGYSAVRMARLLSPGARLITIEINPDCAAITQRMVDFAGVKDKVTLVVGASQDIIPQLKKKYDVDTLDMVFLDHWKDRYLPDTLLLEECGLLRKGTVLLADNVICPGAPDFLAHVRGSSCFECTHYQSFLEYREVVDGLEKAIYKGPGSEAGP

The conditions of series [9]: rats.
Series [10] deals with ATP. As to conditions: calorie restriction.
The conditions of series [11]: in vivo. The source holds these as a separate data set.
Series [12] concerns the target T2, ATP:citrate lyase (Homo sapiens, UniProt P53396).
T2 sequence (P53396 1-1101): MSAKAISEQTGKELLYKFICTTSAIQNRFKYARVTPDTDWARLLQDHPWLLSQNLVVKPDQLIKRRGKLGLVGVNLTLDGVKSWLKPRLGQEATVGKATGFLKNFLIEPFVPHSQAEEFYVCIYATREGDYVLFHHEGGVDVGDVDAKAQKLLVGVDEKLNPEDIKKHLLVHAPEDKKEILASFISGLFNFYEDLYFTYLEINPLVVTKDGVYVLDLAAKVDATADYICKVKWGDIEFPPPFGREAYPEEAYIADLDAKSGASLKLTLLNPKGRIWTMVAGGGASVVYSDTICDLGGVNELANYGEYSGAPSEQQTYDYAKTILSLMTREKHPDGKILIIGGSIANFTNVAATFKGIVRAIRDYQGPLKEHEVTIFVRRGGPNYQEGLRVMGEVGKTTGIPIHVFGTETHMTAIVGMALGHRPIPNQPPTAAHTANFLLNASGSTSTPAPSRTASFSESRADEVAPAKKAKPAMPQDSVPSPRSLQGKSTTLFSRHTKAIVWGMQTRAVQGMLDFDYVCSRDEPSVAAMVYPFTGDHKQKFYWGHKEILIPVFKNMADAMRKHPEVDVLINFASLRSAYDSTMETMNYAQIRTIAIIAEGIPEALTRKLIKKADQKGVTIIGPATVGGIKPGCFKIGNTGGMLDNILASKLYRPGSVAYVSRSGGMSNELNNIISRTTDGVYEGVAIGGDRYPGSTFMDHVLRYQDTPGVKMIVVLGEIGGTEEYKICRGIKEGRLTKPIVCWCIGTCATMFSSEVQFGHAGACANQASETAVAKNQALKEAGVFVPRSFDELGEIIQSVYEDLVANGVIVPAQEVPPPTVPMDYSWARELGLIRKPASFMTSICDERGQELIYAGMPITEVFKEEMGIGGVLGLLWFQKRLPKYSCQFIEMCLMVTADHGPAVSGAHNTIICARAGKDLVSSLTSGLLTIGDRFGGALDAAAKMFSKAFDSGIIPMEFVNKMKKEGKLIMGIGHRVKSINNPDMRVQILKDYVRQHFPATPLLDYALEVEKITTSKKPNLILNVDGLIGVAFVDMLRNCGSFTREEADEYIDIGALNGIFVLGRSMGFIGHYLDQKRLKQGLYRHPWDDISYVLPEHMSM

For series [13] the following is noted: rats. This is another data set of the same source.
For series [14] the following is noted: humans. This is another data set of the same source.
The conditions of series [15]: during exercise, untrained men and women.
Test in series [16]: not given
The source holds these as a separate data set.

The conditions of series [17]: during fatigue.
For series [18] the following is noted: patients with mild to moderate psychosyndromes such as dementia.
Series [19] concerns forebrain ischemia. As to conditions: ischemia maintained for 10 minutes.
The conditions of series [20]: elderly patients.
For series [21] the following is noted: healthy women, three-day supplementation.
The conditions of series [22]: stroke patients.
The conditions of series [23]: obese rats.
For series [24] the following is noted: rat, administration of NOPE.

For the compound `CC1=C(/C=C/C(C)=C/C=C/C(C)=C/C=C/C=C(C)/C=C/C=C(C)/C=C/C2=C(C)C(=O)[C@@H](O)CC2(C)C)C(C)(C)C[C@H](O)C1=O` [Astaxanthin], in series [1], the exercise-induced muscle damage result is recorded as “attenuate exercise-induced muscle damage”. The 5-alpha-reductase inhibition result in series [2] is given as “inhibiting 5-alpha-reductase”. For the same compound, the safety entry in series [3] is listed as “safe”.

In the case of `[Cr]` [Chromium], the lean mass entry (clinical) is given as “increase lean mass”. For the same compound, the body fat result (combined with exercise) is reported as “reduce body fat”. Besides, the HDL cholesterol entry in series [4] is reported as “increase HDL”.

`O=C(O[C@@H]1Cc2c(O)cc(O)cc2O[C@@H]1c1cc(O)c(O)c(O)c1)c1cc(O)c(O)c(O)c1` [EGCG, (−)-Epigallocatechin-3-gallate]: the antioxidant activity result in series [5] is “greater than many well known and established antioxidants”. Also, the glutamate dehydrogenase inhibition result in series [6] is given as “inhibitor of glutamate dehydrogenase”. For the same compound, in series [7], the “food intake, body weight, cholesterol and triglycerides” value was “effective at reducing food intake, body weight, cholesterol and triglycerides”. The COMT inhibition result in series [8] is “inhibitor”.

With `C/C=C(\C)C(=O)O[C@@H]1C[C@H]2[C@@H](CC=C3C[C@@H](O[C@H]4C[C@H](OC)[C@H](O[C@H]5C[C@H](OC)[C@H](O[C@@H]6O[C@H](C)[C@@H](O)[C@H](OC)[C@H]6O)[C@@H](C)O5)[C@@H](C)O4)CC[C@@]32C)[C@@]2(O)CC[C@H](C(C)=O)[C@@]12C` [Example P57], in [9], the food intake result is “reduce food intake”. Also, in series [10], the ATP result is “countered the reduction in ATP normally expected from calorie restriction”.

As for `O=C(O)CC(O)(C(=O)O)C(O)C(=O)O` (stereo not drawn) [HCA, Hydroxycitric acid], the serotonin levels result in series [11] is reported as “significantly increased”. Also, the “ATP:citrate lyase inhibition” value in series [12] is listed as “competitive inhibitor”. For the same compound, the “fatty acid synthesis and appetite” value in series [13] is “inhibit fatty acid synthesis and repress appetite”. The caloric intake entry in series [14] is listed as “reduce caloric intake”. In addition, the fat oxidation entry in [15] is recorded as “increase fat oxidation during exercise”.

With `N[C@@H](Cc1ccc(O)cc1)C(=O)O` [Tyrosine], in series [16] (periods of stress), the “mood and cognitive performance” value is “improve mood and cognitive performance”. Besides, the “blood pressure and cognition” value in [16] (under stress) is “reduction in blood pressure in addition to cognitive improvement”. Moreover, in [17], the mental performance result was “improve”.

Consider `CCOC(=O)C1=C[C@]2(CC)CCCN3CCc4c(n1c1ccccc41)[C@@H]32` [Vinpocetine], for which the cognitive performance result in series [18] was “cognitive performance improved”. For the same compound, in series [19], the brain cell damage entry is listed as “prevent brain cell damage”. Further, in series [20], the “improvement in chronic cerebral dysfunction” value is on record as “significant improvement”. In addition, the memory entry in series [21] is reported as “improvement in the memory”. In addition, the cerebral blood flow result in series [22] was “increase cerebral blood flow”.

On to N-olyl-phosphatidyl ethanolamine [NOPE], for which, in series [23], the body weight entry is reported as “lower body weight”. Also, the appetite and weight entry in series [24] is “causes appetite suppression and subsequent weight loss”.
